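Grown in 96-well plates, cells were treated for 48 hours with each compound at five concentrations. Insufficient inhibition: endpoint recorded as highest concentration tested. TGI denotes the concentration required for complete inhibition of growth.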
How the values were obtained:
Experiment in all cases: inhibition of tumour cell growth, NCI panel, 48 h
EKVX NSCLC = system: EKVX NSCLC
MDA-MB-231 breast = system: MDA-MB-231 breast
OVCAR-8 ovarian = system: OVCAR-8 ovarian
NCI-H226 lung = system: NCI-H226 lung
SF-539 CNS = system: SF-539 CNS
COLO 205 colon = system: COLO 205 colon
SN12C renal = system: SN12C renal
HT29 colon = system: HT29 colon
786-0 renal = system: 786-0 renal
SNB-19 CNS = system: SNB-19 CNS
NCI-H522 lung = system: NCI-H522 lung
OVCAR-4 ovarian = system: OVCAR-4 ovarian
SNB-75 CNS = system: SNB-75 CNS
CCRF-CEM leukemia = system: CCRF-CEM leukemia
SK-MEL-2 melanoma = system: SK-MEL-2 melanoma
CAKI-1 renal = system: CAKI-1 renal
NCI/ADR-RES ovarian = system: NCI/ADR-RES ovarian
HCC-2998 colon = system: HCC-2998 colon
A498 renal = system: A498 renal
DU-145 prostate = system: DU-145 prostate
U251 CNS = system: U251 CNS
MDA-MB-435 = system: MDA-MB-435
HCT-116 colon = system: HCT-116 colon
NCI-H460 lung = system: NCI-H460 lung
SK-OV-3 ovarian = system: SK-OV-3 ovarian
OVCAR-3 ovarian = system: OVCAR-3 ovarian
OVCAR-5 ovarian = system: OVCAR-5 ovarian
HOP-62 NSCLC = system: HOP-62 NSCLC
K-562 leukemia = system: K-562 leukemia
SW-620 colon = system: SW-620 colon
IGROV1 ovarian = system: IGROV1 ovarian
KM12 colon = system: KM12 colon
MOLT-4 leukemia = system: MOLT-4 leukemia
HL-60(TB) leukemia = system: HL-60(TB) leukemia
RXF 393 renal = system: RXF 393 renal
RPMI-8226 leukemia = system: RPMI-8226 leukemia
HS 578T breast = system: HS 578T breast
PC-3 prostate = system: PC-3 prostate
SK-MEL-28 melanoma = system: SK-MEL-28 melanoma
BT-549 breast = system: BT-549 breast
SK-MEL-5 melanoma = system: SK-MEL-5 melanoma
UACC-62 melanoma = system: UACC-62 melanoma
MCF7 breast = system: MCF7 breast
HCT-15 colon = system: HCT-15 colon
T-47D breast = system: T-47D breast
A549 NSCLC = system: A549 NSCLC
SR leukemia = system: SR leukemia
NCI-H23 lung = system: NCI-H23 lung
SF-295 CNS = system: SF-295 CNS
UO-31 renal = system: UO-31 renal
SF-268 CNS = system: SF-268 CNS
M14 melanoma = system: M14 melanoma
ACHN renal = system: ACHN renal
HOP-92 NSCLC = system: HOP-92 NSCLC
LOX IMVI melanoma = system: LOX IMVI melanoma
TK-10 renal = system: TK-10 renal
UACC-257 melanoma = system: UACC-257 melanoma

## CC(C)(O)[C@@H]1CC[C@](C)(C2[C@@H](O)C[C@@]3(C)C4C[C@H](OC5OCC(O)C(O)C5O)[C@H]5C(C)(C)[C@@H](OC6OCC(O)C(O)C6OC6OCC(O)C(O)C6O)CC[C@@]56C[C@@]46CC[C@]23C)O1 (stereo partly drawn)
EKVX NSCLC
  TGI: > 100 µM
MDA-MB-231 breast
  TGI: > 100 µM
OVCAR-8 ovarian
  TGI: > 100 µM
NCI-H226 lung
  TGI: > 100 µM
SF-539 CNS
  TGI: > 100 µM
COLO 205 colon
  TGI: > 100 µM
SN12C renal
  TGI: > 100 µM
HT29 colon
  TGI: > 100 µM
786-0 renal
  TGI: > 100 µM
SNB-19 CNS
  TGI: > 100 µM
NCI-H522 lung
  TGI: > 100 µM
OVCAR-4 ovarian
  TGI: > 100 µM
SNB-75 CNS
  TGI: > 100 µM
CCRF-CEM leukemia
  TGI: > 100 µM
SK-MEL-2 melanoma
  TGI: > 100 µM
CAKI-1 renal
  TGI: > 100 µM
NCI/ADR-RES ovarian
  TGI: > 100 µM
HCC-2998 colon
  TGI: > 100 µM
A498 renal
  TGI: > 100 µM
DU-145 prostate
  TGI: > 100 µM
U251 CNS
  TGI: > 100 µM
MDA-MB-435
  TGI: > 100 µM
HCT-116 colon
  TGI: > 100 µM
NCI-H460 lung
  TGI: > 100 µM
SK-OV-3 ovarian
  TGI: > 100 µM
OVCAR-3 ovarian
  TGI: > 100 µM
OVCAR-5 ovarian
  TGI: > 100 µM
HOP-62 NSCLC
  TGI: > 100 µM
K-562 leukemia
  TGI: > 100 µM
SW-620 colon
  TGI: > 100 µM
IGROV1 ovarian
  TGI: > 100 µM
KM12 colon
  TGI: > 100 µM
MOLT-4 leukemia
  TGI: > 100 µM
HL-60(TB) leukemia
  TGI: > 100 µM
RXF 393 renal
  TGI: > 100 µM
RPMI-8226 leukemia
  TGI: > 100 µM
HS 578T breast
  TGI: > 100 µM
PC-3 prostate
  TGI: > 100 µM
SK-MEL-28 melanoma
  TGI: > 100 µM
BT-549 breast
  TGI: > 100 µM
SK-MEL-5 melanoma
  TGI: > 100 µM
UACC-62 melanoma
  TGI: > 100 µM
MCF7 breast
  TGI: > 100 µM
HCT-15 colon
  TGI: > 100 µM
T-47D breast
  TGI: > 100 µM
A549 NSCLC
  TGI: > 100 µM
SR leukemia
  TGI: > 100 µM
NCI-H23 lung
  TGI: > 100 µM
SF-295 CNS
  TGI: > 100 µM
UO-31 renal
  TGI: > 100 µM
SF-268 CNS
  TGI: > 100 µM
M14 melanoma
  TGI: > 100 µM

## CCOC(=O)C(C)c1nc2cc3cccnc3c(Cl)c2[nH]c1=O (stereo not drawn)
EKVX NSCLC
  TGI: > 100 µM
MDA-MB-231 breast
  TGI: > 100 µM
OVCAR-8 ovarian
  TGI: > 100 µM
NCI-H226 lung
  TGI: > 100 µM
SF-539 CNS
  TGI: > 100 µM
COLO 205 colon
  TGI: > 100 µM
ACHN renal
  TGI: > 100 µM
HT29 colon
  TGI: > 100 µM
786-0 renal
  TGI: > 100 µM
SNB-19 CNS
  TGI: > 100 µM
OVCAR-4 ovarian
  TGI: > 100 µM
SNB-75 CNS
  TGI: > 100 µM
HOP-92 NSCLC
  TGI: > 100 µM
CCRF-CEM leukemia
  TGI: > 100 µM
SK-MEL-2 melanoma
  TGI: > 100 µM
CAKI-1 renal
  TGI: > 100 µM
NCI/ADR-RES ovarian
  TGI: > 100 µM
HCC-2998 colon
  TGI: > 100 µM
A498 renal
  TGI: > 100 µM
DU-145 prostate
  TGI: 50 µM
U251 CNS
  TGI: > 100 µM
MDA-MB-435
  TGI: > 100 µM
HCT-116 colon
  TGI: > 100 µM
NCI-H460 lung
  TGI: > 100 µM
SK-OV-3 ovarian
  TGI: > 100 µM
HOP-62 NSCLC
  TGI: > 100 µM
K-562 leukemia
  TGI: > 100 µM
SW-620 colon
  TGI: > 100 µM
LOX IMVI melanoma
  TGI: > 100 µM
IGROV1 ovarian
  TGI: > 100 µM
TK-10 renal
  TGI: > 100 µM
KM12 colon
  TGI: > 100 µM
HL-60(TB) leukemia
  TGI: > 100 µM
RXF 393 renal
  TGI: > 100 µM
RPMI-8226 leukemia
  TGI: > 100 µM
HS 578T breast
  TGI: > 100 µM
PC-3 prostate
  TGI: > 100 µM
SK-MEL-28 melanoma
  TGI: > 100 µM
BT-549 breast
  TGI: > 100 µM
SK-MEL-5 melanoma
  TGI: > 100 µM
UACC-62 melanoma
  TGI: > 100 µM
MCF7 breast
  TGI: > 100 µM
UACC-257 melanoma
  TGI: > 100 µM
HCT-15 colon
  TGI: > 100 µM
T-47D breast
  TGI: > 100 µM
SR leukemia
  TGI: > 100 µM
NCI-H23 lung
  TGI: > 100 µM
SF-295 CNS
  TGI: > 100 µM
UO-31 renal
  TGI: > 100 µM
SF-268 CNS
  TGI: > 100 µM
M14 melanoma
  TGI: > 100 µM

Source: PubChem BioAssay (NCI)
